# Laboratory results reported in patent US7294511B2, “Methods for delivering nucleic acid molecules into cells and assessment thereof” (Chromos Molecular Systems, Inc., priority 2001, dated 2007).
# Columns and labels:
# Hep-G2 cells = assay: Ultrasound mediated transfection of Hep-G2 cells with GFP chromosomes and Saint-2; assay type: cell-based
# Protocol: (§1) Alternatively, the medium was removed from the cells, and the cells were washed twice with HBSS. 500 μl HBSS/lipid solution at 37° C. was added to each well. The HBSS/lipid solution was prepared by adding 1 μl ethanolic lipid solution (prepared as described above) to 500 μl HBSS under vigorous vortexing. The plates were then sealed with parafilm tape and shaken gently at room temperature for 30 min. After incubation, ultrasound was applied at an output energy of 0.5 Watt/cm^2 for 60 sec through the bottom of the plate to the cells. The ultrasound was mediated by an ultrasound gel (Aquasonic 100, Parker, N.J.) between transducer and plate. The ultrasound was applied with an ImaRx Sonoporator 100. Immediately after applying ultrasound one GFP chromosome per seeded cell (2×10^5-5×10^5) (prepared in Example 1) was added. The plate was then sealed again and shaken gently for 1 h at room temperature. After the incubation 1 ml medium (CHO—S-SFM 2 with 10% Fetal Calf Serum, 10000 μg/ml Penicillin and 10000 μg/ml Streptomycin Gibco BRL, Paisley, UK) was added to each well and the cells were incubated for 24 h at 37° C. The cells were then washed with medium, 1 ml medium was added, and the cells were incubated at 37° for another 24 h. Detection of expressed genes was then assayed by microscopy or detection of the transferred chromosome by FISH analysis. […]
# CHO-KI cells = assay: Ultrasound mediated transfection of CHO-KI cells with GFP chromosomes and Saint-2; assay type: cell-based
# Protocol: Vesicles were prepared at a lipid concentration of 700 nmol/ml lipid (cationic lipid/DOPE 1:1) as follows. In a glass tube (10 ml) 350 nmol cationic lipid (SAINT-2) was mixed with 350 nmol dioleoylphosphatidylethanolamine (DOPE), both solubilized in an organic solvent (Chloroform, Methanol or Chloroform/Methanol 1:1, v/v). dioleoylphosphatidylethanolamine (DOPE; Avanti Polar Lipids, Alabaster, Ala.) forms inverse hexagonal phases in a membrane and weakens the membrane. Other effectors that may be used are cis-unsaturated phosphatidylethanolamines, cis-unsaturated fatty acids, and cholesterol.
# The solvent was evaporated under a stream of nitrogen (15 min/250 μl solvent at room temperature). The remaining solvent was removed totally by drying the lipid for 15 min in an desiccator under high vacuum from a vacuum pump. To the dried mixture was added 1 ml ultrapure water. This was vortexed vigorously for about 5 min. The resulting solution was sonicated in an ultrasonication bath (Laboratory Supplies Inc. N.Y.) until a clear solution was obtained. The resulting suspension contained a population of unilamellar vesicles with a size distribution between 50 to 100 nm.
# CHO-KI cells were grown at 37° C., 5% CO2, in CHO—S-SFM 2 Medium, (Gibco BRL, Paisley, UK). Between 2×10^5 and 5×10^5 cells were plated onto sterile glass slides in a 12 well plate 24 h before usage.
# Transfection of the cells was performed as follows. The medium was removed from the cells, and the cells were washed twice with HBSS (Hanks balanced salt solution without Phenol Red (Gibco BRL, UK)) at 37° C. Then 500 μl HBSS at 37° C. was added per well, followed by 10 μl of the freshly prepared vesicle solution (prepared in Example 2) to yield a final concentration of 23.3 nmol/ml.
# as §1, with “temperature.” for “temperature. After the incubation 1 ml medium (CHO—S-SFM 2 with 10% Fetal Calf Serum, 10000 μg/ml Penicillin and 10000 μg/ml Streptomycin Gibco BRL, Paisley, UK) was added to each well and the cells were incubated for 24 h at 37° C. The cells were then washed with medium, 1 ml medium was added, and the cells were incubated at 37° for another 24 h. Detection of expressed genes was then assayed by microscopy or detection of the transferred chromosome by FISH analysis.”
# A9 cells = assay: Ultrasound mediated transfection of A9 cells with GFP chromosomes and Saint-2; assay type: cell-based, murine
# Protocol: as §1
structure (smiles),measurement,setting,value
"CCCCCCCCC=CCCCCCCCCC(CCCCCCCCC=CCCCCCCCC)c1cc[n+](C)cc1.[Cl-] (centres unmarked) [Saint-2, 1-methyl-4-(1-octadec-9-enyl-nonadec-10-enylenyl)pyridinium chloride]",cells remained on the glass slide after transfection,"Hep-G2 cells; Hep-G2, Saint-2/DOPE, ultrasound 0.5 Watt/cm^2 60 sec",30%
same,remaining cells positive for green fluorescent protein expression,"Hep-G2 cells; Hep-G2, of the cells remaining on the slide",80%
same,cells remained on the glass slide after transfection,"CHO-KI cells; Saint-2/DOPE, ultrasound 0.5 Watt/cm^2 60 sec, visual inspection",30%
same,GFP positive cells as % of original population,CHO-KI cells; after 48 hours,3%
same,remaining cells positive for green fluorescent protein expression,"CHO-KI cells; after 48 hours, of the cells remaining on the slide",10%
same,cells containing an intact artificial chromosome (FISH),CHO-KI cells; after culturing for two weeks,1.4%
same,cells remained on the glass after transfection,"A9 cells; A9, Saint-2/DOPE, ultrasound 0.5 Watt/cm^2 60 sec",30%
same,remaining cells positive for green fluorescent protein expression,"A9 cells; A9, of the cells remaining on the glass",50%
